Laboratory results taken from paper PMC9227781, “Inhibitors of O-Acetylserine Sulfhydrylase with a Cyclopropane-Carboxylic Acid Scaffold Are Effective Colistin Adjuvants in Gram Negative Bacteria” (Pharmaceuticals, 2022).

Columns and labels:
StOASS-B = target: T1, StOASS-B (Salmonella typhimurium, UniProt P29848); test: Fluorescence binding assay on purified recombinant StOASS-B
T1 construct: His-tag (with TEV site) (cleaved yes); made in house; host or cells: E. coli Rosetta (DE3)
T1 sequence (P29848 1-303): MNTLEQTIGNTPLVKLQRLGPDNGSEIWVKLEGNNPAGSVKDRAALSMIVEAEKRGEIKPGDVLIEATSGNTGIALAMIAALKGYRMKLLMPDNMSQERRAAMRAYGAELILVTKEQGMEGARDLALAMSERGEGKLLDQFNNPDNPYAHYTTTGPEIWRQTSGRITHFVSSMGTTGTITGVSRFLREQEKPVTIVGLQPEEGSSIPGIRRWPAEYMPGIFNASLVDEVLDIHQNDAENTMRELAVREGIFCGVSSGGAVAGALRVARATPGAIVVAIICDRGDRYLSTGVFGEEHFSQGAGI
Experimental: (§1) The affinity of the compounds for StOASS-A and StOASS-B was determined on the purified recombinant proteins by an in vitro fluorescence binding assay. Measurements were carried out at 20 °C in a 3 mm pathlength quartz microcuvette in 100 mM HEPES, 5% DMSO (Applichem, Darmstadt, Germany), pH 7.0, using a Fluoromax-4 (Horiba Jobin-Yvon, Kyoto, Japan) spectrofluorometer. Emission spectra of solutions containing 0.2–1.0 μM StOASS, upon excitation of the pyridoxal 5′-phosphate cofactor at 412 nm, in the presence of increasing concentrations of compounds were collected; fluorescence intensities at 500 nm were plotted to compound concentration and data were fitted to a binding isotherm: I=I0+ΔI·compound/KD+compound where I is the fluorescence emission intensity at 500 nm in the presence of a given concentration of compound, I0 is the initial fluorescence emission in the absence of ligands, ΔI is the amplitude of the fluorescence emission change and KD is the dissociation constant. When the KD was lower than the protein concentration, data were fitted to the quadratic equation: I=I0+ΔI·OASS+compound+KD−OASS+compound+KD^2−4·OASS·compound/2
(§2) Data were collected in duplicate.
(§3) Esters were tested up to a concentration of 100 μM and no binding was observed.

StOASS-A = target: T2, StOASS-A (Salmonella typhimurium, UniProt P0A1E3); test: Fluorescence binding assay on purified recombinant StOASS-A; set-up: species or system S. Typhimurium; settings: 20 °C, 100 mM HEPES, 5% DMSO, pH 7.0, racemic mixture, esters tested up to 100 μM
T2 construct: His-tag (with TEV site) (cleaved yes); made in house; host or cells: E. coli Rosetta (DE3)
Experimental: as §1, §2, §3

MDBK cells = test: Cytotoxicity assay (MTT) on MDBK cells; format: cell-based, bovine; settings: 32, 16, 8 µg/mL; MTT test
Experimental: The cytotoxicity assay was performed using the 3-(4,5-dimethylthiazol-2-yl)-2,5-diphenyltetrazolium bromide (MTT) test, following the procedure used by Donofrio et al.. MDBK cells were cultured on microtiter tissue culture plates in DMEM medium for 24 h at 37 °C in the presence of 5% CO2. After incubation, when the cell monolayer was at confluence, an aliquot of 1 µL of UPAR415 in DMSO at different concentrations was added in each well, containing a volume of 100 µL of DMEM medium and MDBK cells, and then the plates were reincubated at the same conditions. After incubation, 10 µL of MTT at 200 mg/mL (3-(4,5-dimethylthiazol-2-yl)-2,5-diphenyltetrazolium bromide) was added to each well and incubated at 37 °C for 6 h. At the end of the incubation, 100 µL of the solubilization solution (10% SDS in 0.01 M HCl) was added to each well and then incubated overnight. The MTT compound, a yellow tetrazolium salt, is reduced by mitochondrial enzymes (succinate dehydrogenase) of metabolically active eukaryotic cells to insoluble formazan crystals. In the presence of metabolically active cells, after the addition of a detergent solution (10% SDS in […]) that allows the formazan to be released from the cells, a violet color is seen in the medium. Instead, in the presence of non-viable cells, MTT is not reduced to formazan and therefore the solution will remain yellow.
After incubation, plates were read with a spectrophotometer at 620 nm. Positive controls (PC)—without any compounds—and PCs with 1% DMSO were performed for each plate and three replicates for two independent experiments were performed for each assay.

T2 sequence (P0A1E3 whole entry): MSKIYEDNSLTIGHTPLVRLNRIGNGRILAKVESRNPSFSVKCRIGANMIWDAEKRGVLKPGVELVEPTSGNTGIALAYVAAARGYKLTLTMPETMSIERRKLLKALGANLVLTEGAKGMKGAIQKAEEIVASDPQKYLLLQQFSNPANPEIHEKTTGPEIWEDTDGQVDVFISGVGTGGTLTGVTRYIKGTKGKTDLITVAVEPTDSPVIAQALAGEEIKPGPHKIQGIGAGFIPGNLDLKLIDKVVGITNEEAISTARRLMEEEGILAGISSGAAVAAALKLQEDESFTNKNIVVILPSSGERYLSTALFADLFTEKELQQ

## Cc1ccc(CC2(C(=O)O)CC2c2cccc(N3CC(C)OC(C)C3)c2)cc1 (stereo not drawn) [Compound 13h, trans-2-(3-(2,6-dimethylmorpholino)phenyl)-1-(4-methylbenzyl)cyclopropanecarboxylic acid]
StOASS-B
  Kd: 3.37 ± 0.72 µM
StOASS-A
  KD (μM) OASS-A: most potent in vitro activity among the derivatives substituted with heteroaliphatic groups
StOASS-A; read-out: KD (μM) OASS-A
  Kd: 0.066 ± 0.005 µM
MDBK cells
  Toxicity on viability of MDBK cells: lowest toxicity profile

## CCOC(=O)C1(Cc2ccc(C)cc2)CC1c1cccc(N2CC(C)OC(C)C2)c1 (stereo not drawn) [Compound 12h, trans-ethyl 2-(3-(2,6-dimethylmorpholino)phenyl)-1-(4-methylbenzyl)cyclopropanecarboxylate]
StOASS-B; 20 °C, 100 mM HEPES, 5% DMSO, pH 7.0, racemic mixture, esters tested up to 100 μM
  KD (μM) OASS-B: No binding
StOASS-A
  KD (μM) OASS-A: No binding
MDBK cells
  Toxicity on viability of MDBK cells: lowest toxicity profile
